According to patent US10870647B2, “Imidazopyridine derivative, method for preparing same, and pharmaceutical composition containing same as active ingredient for preventing or treating cancer” (DAEGU-GYEONGBUK MEDICAL INNOVATION FOUNDATION, priority 2016, dated 2020):
Like-named read-outs stand apart in the source and are kept apart here.

Assays:
Test in all cases: Kinase selectivity, scanMAX Kinase assay panel (DiscoverX), % control at 1 uM
Format in all cases: binding
[1] = biological target: T1, scanMAX Kinase assay panel (Homo sapiens, UniProt O15530); settings: PDPK1; 1 uM; read-out: Percent Control (%)
T1 construct: purchased DiscoverX
T1 sequence (O15530 1-556): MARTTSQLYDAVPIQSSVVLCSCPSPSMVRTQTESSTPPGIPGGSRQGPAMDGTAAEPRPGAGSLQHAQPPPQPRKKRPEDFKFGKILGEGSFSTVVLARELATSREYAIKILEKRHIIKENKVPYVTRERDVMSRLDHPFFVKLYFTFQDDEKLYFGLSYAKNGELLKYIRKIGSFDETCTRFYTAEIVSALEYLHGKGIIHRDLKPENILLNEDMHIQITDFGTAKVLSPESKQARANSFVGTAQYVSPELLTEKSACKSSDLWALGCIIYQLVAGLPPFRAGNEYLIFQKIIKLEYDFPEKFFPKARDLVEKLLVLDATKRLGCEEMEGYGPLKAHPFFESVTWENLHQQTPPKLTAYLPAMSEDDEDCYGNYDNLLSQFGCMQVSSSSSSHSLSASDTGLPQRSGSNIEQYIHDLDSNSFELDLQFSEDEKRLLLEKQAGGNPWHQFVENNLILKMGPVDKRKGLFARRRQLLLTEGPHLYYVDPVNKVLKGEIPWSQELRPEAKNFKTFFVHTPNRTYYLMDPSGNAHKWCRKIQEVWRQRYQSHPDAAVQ
Summary of the method: (§1)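 Read-out is percent of control, derived from the signal with compound relative to positive and negative controls: (compound − positive)/(negative − positive) × 100. Each enzyme received test drug at 1 uM in DMSO, and values under 35% count as active.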

[2] = biological target: T2, scanMAX Kinase assay panel (Homo sapiens, UniProt P00519); settings: 1 uM, read-out: Percent Control (%)
T2 construct: purchased DiscoverX
T2 sequence (P00519 whole entry): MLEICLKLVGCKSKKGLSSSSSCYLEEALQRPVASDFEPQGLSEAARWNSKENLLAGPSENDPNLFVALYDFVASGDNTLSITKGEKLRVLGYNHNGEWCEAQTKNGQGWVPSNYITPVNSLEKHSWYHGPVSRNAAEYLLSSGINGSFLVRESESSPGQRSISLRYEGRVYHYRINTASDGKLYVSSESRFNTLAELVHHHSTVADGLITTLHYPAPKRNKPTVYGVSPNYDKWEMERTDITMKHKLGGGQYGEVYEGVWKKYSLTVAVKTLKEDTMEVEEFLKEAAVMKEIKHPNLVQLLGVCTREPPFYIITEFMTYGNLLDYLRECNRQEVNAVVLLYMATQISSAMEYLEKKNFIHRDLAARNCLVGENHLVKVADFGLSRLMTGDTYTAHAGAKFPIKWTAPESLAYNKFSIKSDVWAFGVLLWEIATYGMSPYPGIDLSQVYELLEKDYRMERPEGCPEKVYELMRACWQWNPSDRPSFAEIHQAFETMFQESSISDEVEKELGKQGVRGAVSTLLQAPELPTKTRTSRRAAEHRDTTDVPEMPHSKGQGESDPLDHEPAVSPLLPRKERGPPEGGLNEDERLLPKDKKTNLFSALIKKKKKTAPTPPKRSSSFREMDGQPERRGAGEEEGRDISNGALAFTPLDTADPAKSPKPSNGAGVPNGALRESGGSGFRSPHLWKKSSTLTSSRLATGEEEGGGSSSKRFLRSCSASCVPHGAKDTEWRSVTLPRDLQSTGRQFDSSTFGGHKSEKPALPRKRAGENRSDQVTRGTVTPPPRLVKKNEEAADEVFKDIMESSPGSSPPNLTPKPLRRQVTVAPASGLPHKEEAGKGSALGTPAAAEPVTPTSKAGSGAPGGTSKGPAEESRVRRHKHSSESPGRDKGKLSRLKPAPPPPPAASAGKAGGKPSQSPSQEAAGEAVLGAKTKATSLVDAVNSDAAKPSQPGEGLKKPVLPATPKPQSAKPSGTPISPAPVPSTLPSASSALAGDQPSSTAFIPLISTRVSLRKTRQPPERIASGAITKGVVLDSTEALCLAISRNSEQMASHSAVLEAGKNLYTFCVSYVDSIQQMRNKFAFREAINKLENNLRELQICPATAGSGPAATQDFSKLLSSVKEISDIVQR
Summary of the method: as §1

[3] = biological target: T3, scanMAX Kinase assay panel (Homo sapiens, UniProt P16591); settings: FER; 1 uM; read-out: Percent Control (%)
T3 construct: purchased DiscoverX
T3 sequence (P16591 whole entry): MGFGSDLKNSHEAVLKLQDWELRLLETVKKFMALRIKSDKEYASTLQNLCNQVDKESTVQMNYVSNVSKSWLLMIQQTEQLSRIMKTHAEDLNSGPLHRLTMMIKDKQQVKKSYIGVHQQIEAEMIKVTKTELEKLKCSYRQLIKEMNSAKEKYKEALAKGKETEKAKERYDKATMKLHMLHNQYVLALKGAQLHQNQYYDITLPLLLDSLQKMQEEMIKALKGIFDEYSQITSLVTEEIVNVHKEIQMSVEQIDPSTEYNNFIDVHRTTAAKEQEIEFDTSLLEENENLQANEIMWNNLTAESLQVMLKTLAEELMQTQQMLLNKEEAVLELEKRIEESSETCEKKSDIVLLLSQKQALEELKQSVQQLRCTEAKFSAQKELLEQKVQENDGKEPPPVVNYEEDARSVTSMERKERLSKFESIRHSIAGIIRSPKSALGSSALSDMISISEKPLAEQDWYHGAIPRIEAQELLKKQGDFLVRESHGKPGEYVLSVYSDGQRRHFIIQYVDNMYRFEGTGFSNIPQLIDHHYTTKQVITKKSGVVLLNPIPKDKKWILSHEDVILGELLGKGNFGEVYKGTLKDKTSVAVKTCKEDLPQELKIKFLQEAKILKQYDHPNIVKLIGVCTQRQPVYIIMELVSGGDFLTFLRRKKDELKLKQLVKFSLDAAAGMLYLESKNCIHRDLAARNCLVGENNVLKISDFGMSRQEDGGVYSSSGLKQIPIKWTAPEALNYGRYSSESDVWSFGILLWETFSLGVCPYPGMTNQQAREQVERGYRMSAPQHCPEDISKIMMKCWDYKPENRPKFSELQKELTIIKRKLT
Summary of the method: as §1

[4] = biological target: T4, scanMAX Kinase assay panel (Homo sapiens, UniProt Q04759); settings: PRKCQ; 1 uM; read-out: Percent Control (%)
T4 construct: purchased DiscoverX
T4 sequence (Q04759 whole entry): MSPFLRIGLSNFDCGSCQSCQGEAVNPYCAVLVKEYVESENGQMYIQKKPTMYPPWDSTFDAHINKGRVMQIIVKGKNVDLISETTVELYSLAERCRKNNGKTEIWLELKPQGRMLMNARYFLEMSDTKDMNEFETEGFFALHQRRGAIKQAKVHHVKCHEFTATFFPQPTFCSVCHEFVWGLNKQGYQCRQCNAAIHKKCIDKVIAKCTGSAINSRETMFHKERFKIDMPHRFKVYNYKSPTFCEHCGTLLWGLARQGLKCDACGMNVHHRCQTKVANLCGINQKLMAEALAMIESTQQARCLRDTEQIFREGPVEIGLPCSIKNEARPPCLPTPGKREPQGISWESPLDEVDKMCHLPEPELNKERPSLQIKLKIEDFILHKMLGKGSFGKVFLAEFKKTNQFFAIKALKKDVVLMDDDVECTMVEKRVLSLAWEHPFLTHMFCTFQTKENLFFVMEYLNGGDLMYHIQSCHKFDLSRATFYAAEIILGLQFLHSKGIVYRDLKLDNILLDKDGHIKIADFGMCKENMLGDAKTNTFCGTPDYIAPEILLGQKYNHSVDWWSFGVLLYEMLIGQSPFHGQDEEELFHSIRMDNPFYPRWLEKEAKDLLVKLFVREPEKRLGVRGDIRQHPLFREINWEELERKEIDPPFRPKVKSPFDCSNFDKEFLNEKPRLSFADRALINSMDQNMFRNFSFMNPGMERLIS
Summary of the method: as §1

[5] = biological target: T5, scanMAX Kinase assay panel (Homo sapiens, UniProt Q56UN5); settings: YSK4; 1 uM; read-out: Percent Control (%)
T5 construct: purchased DiscoverX
T5 sequence (Q56UN5 1-1328): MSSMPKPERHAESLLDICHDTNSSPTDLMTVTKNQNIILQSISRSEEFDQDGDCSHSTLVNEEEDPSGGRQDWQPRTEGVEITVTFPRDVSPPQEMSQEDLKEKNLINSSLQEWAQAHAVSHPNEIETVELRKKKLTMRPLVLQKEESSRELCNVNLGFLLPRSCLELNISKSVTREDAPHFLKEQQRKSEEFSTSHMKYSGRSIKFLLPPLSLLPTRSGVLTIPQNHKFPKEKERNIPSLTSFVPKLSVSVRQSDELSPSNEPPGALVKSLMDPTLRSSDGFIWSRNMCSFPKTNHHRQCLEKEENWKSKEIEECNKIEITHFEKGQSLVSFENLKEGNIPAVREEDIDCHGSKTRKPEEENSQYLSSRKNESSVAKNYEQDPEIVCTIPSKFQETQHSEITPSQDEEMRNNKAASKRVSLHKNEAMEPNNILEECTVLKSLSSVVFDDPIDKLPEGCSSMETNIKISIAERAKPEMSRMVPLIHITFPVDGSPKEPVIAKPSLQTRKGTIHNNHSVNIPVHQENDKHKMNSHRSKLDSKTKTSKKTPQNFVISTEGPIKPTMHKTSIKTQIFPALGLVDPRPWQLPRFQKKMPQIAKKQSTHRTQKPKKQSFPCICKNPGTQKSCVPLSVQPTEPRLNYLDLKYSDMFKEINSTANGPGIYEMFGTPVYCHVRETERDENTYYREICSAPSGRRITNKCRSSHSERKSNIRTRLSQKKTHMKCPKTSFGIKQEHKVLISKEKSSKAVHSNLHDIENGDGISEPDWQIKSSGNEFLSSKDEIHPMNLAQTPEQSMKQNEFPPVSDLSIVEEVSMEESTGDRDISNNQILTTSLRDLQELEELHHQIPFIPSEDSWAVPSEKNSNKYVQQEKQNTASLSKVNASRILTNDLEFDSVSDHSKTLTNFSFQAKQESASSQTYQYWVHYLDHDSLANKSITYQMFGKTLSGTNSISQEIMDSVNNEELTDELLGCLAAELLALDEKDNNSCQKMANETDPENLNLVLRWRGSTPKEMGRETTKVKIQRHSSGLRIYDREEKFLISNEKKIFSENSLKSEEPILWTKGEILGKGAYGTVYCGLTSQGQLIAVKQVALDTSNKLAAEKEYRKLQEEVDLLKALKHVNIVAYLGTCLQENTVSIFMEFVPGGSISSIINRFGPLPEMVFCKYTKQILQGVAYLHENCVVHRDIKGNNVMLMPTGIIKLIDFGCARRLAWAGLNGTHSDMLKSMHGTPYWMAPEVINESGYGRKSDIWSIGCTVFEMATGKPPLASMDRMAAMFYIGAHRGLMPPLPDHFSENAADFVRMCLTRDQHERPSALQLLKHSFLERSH
Summary of the method: as §1

[6] = biological target: T6, scanMAX Kinase assay panel (Homo sapiens, UniProt Q9HC98); settings: NEK6; 1 uM; read-out: Percent Control (%)
T6 construct: purchased DiscoverX
T6 sequence (Q9HC98 whole entry): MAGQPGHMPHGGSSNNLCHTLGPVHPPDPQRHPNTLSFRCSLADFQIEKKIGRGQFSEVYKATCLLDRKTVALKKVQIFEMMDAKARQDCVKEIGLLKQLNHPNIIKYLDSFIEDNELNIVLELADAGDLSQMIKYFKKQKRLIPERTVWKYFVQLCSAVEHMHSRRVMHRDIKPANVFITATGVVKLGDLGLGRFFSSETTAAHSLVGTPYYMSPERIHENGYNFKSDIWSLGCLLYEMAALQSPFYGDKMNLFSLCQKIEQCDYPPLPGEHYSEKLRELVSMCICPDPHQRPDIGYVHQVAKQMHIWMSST
Summary of the method: as §1

Structure (SMILES)	remaining binding at 1 µM [1]	remaining binding at 1 µM ([2]; ABL1-nonphosphorylated)	remaining binding at 1 µM ([2]; ABL1-phosphorylated)	remaining binding at 1 µM [3]	remaining binding at 1 µM [4]	remaining binding at 1 µM [5]	remaining binding at 1 µM [6]
Cc1ccc(C(=O)Nc2ccc(CN3CCN(C)CC3)c(C(F)(F)F)c2)cc1C#Cc1cnc2c(Nc3cnn(C)c3)cccn12 [Example 1, 4-methyl-3-((8-((1-methyl-1H-pyrazol-4-yl)amino)imidazo[1,2-a]pyridin-3-yl)ethynyl)-N-(4-((4-methylpiperazin-1-yl)methyl)-3-(trifluoromethyl)phenyl)benzamide]	50%	1%	0%	1%	53%	2%	65%
Cc1cn(-c2cc(NC(=O)c3ccc(C)c(C#Cc4cnc5c(Nc6cnn(C)c6)cccn45)c3)cc(C(F)(F)F)c2)cn1 [Example 12, 4-methyl-N-(3-(4-methyl-1H-imidazol-1-yl)-5-(trifluoromethyl)phenyl)-3-((8-((1-methyl-1H-pyrazol-4-yl)amino)imidazo[1,2-a]pyridin-3-yl)ethynyl)benzamide]	93%	1%	6%	40%	87%	2%	88%
Cc1ccc(NC(=O)C2(C(=O)Nc3ccc(F)cc3)CC2)cc1C#Cc1cnc2c(Nc3cnn(C(C)C)c3)cccn12 [Example 78]	92%	4%	56%	100%	85%	71%	100%
